Laboratory results reported in patent US8952162B2, “Triazolopyridines as phosphodiesterase inhibitors for treatment of dermal diseases” (Leo Pharma A/S, priority 2008, dated 2015).

Each compound was assayed against Human recombinant PDE4 (Genbank accession no NM—006203) (Homo sapiens, UniProt Q08499) (assay: PDE4 assay (SPA, cAMP cleavage)). Settings: Example 53; PDE4 assay as in example 52; read-out: PDE4 IC50 range.
Chain of Human recombinant PDE4 (Genbank accession no NM—006203) (Q08499 1-673 isoform Q08499-2): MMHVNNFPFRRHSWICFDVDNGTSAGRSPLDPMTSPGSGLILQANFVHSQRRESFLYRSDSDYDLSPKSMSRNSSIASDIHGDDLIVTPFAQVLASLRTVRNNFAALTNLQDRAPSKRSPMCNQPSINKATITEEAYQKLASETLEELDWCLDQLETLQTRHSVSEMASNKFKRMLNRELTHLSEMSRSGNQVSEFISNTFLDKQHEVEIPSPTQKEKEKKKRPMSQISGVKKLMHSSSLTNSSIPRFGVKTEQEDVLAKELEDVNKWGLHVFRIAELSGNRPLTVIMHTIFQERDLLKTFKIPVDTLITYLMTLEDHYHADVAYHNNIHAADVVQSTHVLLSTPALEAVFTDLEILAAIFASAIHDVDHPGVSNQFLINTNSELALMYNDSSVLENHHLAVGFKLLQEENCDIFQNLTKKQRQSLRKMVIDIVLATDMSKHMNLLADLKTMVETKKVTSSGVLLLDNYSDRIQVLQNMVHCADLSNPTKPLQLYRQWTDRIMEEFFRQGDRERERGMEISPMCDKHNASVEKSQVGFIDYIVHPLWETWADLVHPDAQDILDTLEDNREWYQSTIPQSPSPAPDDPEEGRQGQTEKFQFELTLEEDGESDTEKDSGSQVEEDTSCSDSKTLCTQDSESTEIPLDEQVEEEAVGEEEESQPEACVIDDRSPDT
Type: biochemical
Procedure: At the end of the incubation, the cleavage of the substrate was evaluated by the binding of the AMP product to SPA beads, which generate chemoluminescence when bound to the radioactive tracer. The AMP product inhibited the binding of the radioactive tracer to the beads, and the luminescent signal was competed.
`COc1ccc(-c2ccc(C#N)cc2)n2nc(C3(C(=O)NCC#N)CC3)nc12` [Compound 215, 1-[5-(4-Cyano-phenyl)-8-methoxy-[1,2,4]triazolo[1,5-a]pyridin-2-yl]-cyclopropanecarboxylic acid cyanomethyl-amide] showed an IC50 of under 500 nM.
In the case of `COc1ccc(-c2ccc(C#N)cc2)n2nc(C3(C(=O)NCCNC(C)=O)CC3)nc12` [Compound 216, 1-[5-(4-Cyano-phenyl)-8-methoxy-[1,2,4]triazolo[1,5-a]pyridin-2-yl]-cyclopropanecarboxylic acid (2-acetylamino-ethyl)-amide], the IC50 is reported as under 500 nM.
`COc1ccc(-c2ccc(C#N)cc2)n2nc(C3(C(=O)NCCNS(C)(=O)=O)CC3)nc12` [Compound 217, 1-[5-(4-Cyano-phenyl)-8-methoxy-[1,2,4]triazolo[1,5-a]pyridin-2-yl]-cyclopropanecarboxylic acid (2-methanesulfonylamino-ethyl)-amide] was tested, and the IC50 was under 500 nM.
In the case of `COc1ccc(-c2ccc(C#N)cc2)n2nc(C3(C(=O)NCCC(=O)N4CCOCC4)CC3)nc12` [Compound 218, 1-[5-(4-Cyano-phenyl)-8-methoxy-[1,2,4]triazolo[1,5-a]pyridin-2-yl]-cyclopropanecarboxylic acid (3-morpholin-4-yl-3-oxo-propyl)-amide], the IC50 is reported as under 500 nM.
In the case of `COc1ccc(-c2ccc(C#N)cc2)n2nc(C3(C(=O)NCCS(=O)(=O)N(C)C)CC3)nc12` [Compound 219, 1-[5-(4-Cyano-phenyl)-8-methoxy-[1,2,4]triazolo[1,5-a]pyridin-2-yl]-cyclopropanecarboxylic acid (2-dimethylsulfamoyl-ethyl)-amide], the IC50 is reported as under 500 nM.
Work on `COc1ccc(-c2ccc(C#N)cc2)n2nc(C3(C(=O)NCCN(C)S(C)(=O)=O)CC3)nc12` [Compound 220, 1-[5-(4-Cyano-phenyl)-8-methoxy-[1,2,4]triazolo[1,5-a]pyridin-2-yl]-cyclopropanecarboxylic acid [2-(methanesulfonyl-methyl-amino)-ethyl]-amide] yielded an IC50 of under 500 nM.
With `COc1ccc(-c2cccc(C(C)=O)c2)n2nc(C3(C(=O)NCc4cccnc4)CC3)nc12` [Compound 221, 1-[5-(3-Acetyl-phenyl)-8-methoxy-[1,2,4]triazolo[1,5-a]pyridin-2-yl]-cyclopropanecarboxylic acid (pyridin-3-ylmethyl)-amide] the IC50 was under 500 nM.
Work on `COc1ccc(-c2cccc(C(C)=O)c2)n2nc(C3(C(=O)N4CCN(C)CC4)CC3)nc12` [Compound 222, 1-(3-{8-Methoxy-2-[1-(4-methyl-piperazine-1-carbonyl)-cyclopropyl]-[1,2,4]triazolo[1,5-a]pyridin-5-yl}-phenyl)-ethanone] yielded an IC50 of 500 to 1000 nM.
`COc1ccc(-c2cccc(C(C)=O)c2)n2nc(C3(C(=O)N4CCOCC4)CC3)nc12` [Compound 223, 1-(3-{8-Methoxy-2-[1-(morpholine-4-carbonyl)-cyclopropyl]-[1,2,4]-triazolo[1,5-a]pyridin-5-yl}-phenyl)-ethanone] showed an IC50 of under 500 nM.
Compound `COc1ccc(-c2cccc(C(C)=O)c2)n2nc(C3(C(=O)NCc4ccccc4)CC3)nc12` [Compound 224, 1-[5-(3-Acetyl-phenyl)-8-methoxy-[1,2,4]triazolo[1,5-a]pyridin-2-yl]-cyclopropanecarboxylic acid benzylamide] has an IC50 of under 500 nM.
`COc1ccc(-c2cccc(C(C)=O)c2)n2nc(C3(C(=O)NCCS(N)(=O)=O)CC3)nc12` [Compound 225, 1-[5-(3-Acetyl-phenyl)-8-methoxy-[1,2,4]triazolo[1,5-a]pyridin-2-yl]-cyclopropanecarboxylic acid (2-sulfamoyl-ethyl)-amide] showed an IC50 of under 500 nM.
In the case of `COc1ccc(-c2cccc(C(C)=O)c2)n2nc(C3(C(=O)NCCS(C)(=O)=O)CC3)nc12` [Compound 226, 1-[5-(3-Acetyl-phenyl)-8-methoxy-[1,2,4]triazolo[1,5-a]pyridin-2-yl]-cyclopropanecarboxylic acid (2-methanesulfonyl-ethyl)-amide], the IC50 is reported as under 500 nM.
With `COc1ccc(-c2cccc(C#N)c2)n2nc(C3(C(=O)NCCO)CC3)nc12` [Compound 228, 1-[5-(3-Cyano-phenyl)-8-methoxy-[1,2,4]triazolo[1,5-a]pyridin-2-yl]-cyclopropanecarboxylic acid (2-hydroxy-ethyl)-amide] the IC50 was under 500 nM.
In the case of `CCCNC(=O)OCC1(c2nc3c(OC)ccc(-c4ccc5c(c4)CCC5=O)n3n2)CC1` [Compound 230, Propyl-carbamic acid 1-[8-methoxy-5-(1-oxo-indan-5-yl)-[1,2,4]triazolo[1,5-a]pyridin-2-yl]-cyclopropylmethyl ester], the IC50 is reported as under 500 nM.
`COc1cc(-c2ccc(OC)c3nc(C4(COC(=O)N(C)C)CC4)nn23)ccc1C#N` [Compound 231, Dimethyl-carbamic acid 1-[5-(4-cyano-3-methoxy-phenyl)-8-methoxy-[1,2,4]triazolo[1,5-a]pyridin-2-yl]-cyclopropylmethyl ester] was tested, and the IC50 was under 500 nM.
In the case of `COc1ccc(-c2cncc(C#N)c2)n2nc(C3(COC(=O)NC(C)C)CC3)nc12` [Compound 232, Isopropyl-carbamic acid 1-[5-(5-cyano-pyridin-3-yl)-8-methoxy-[1,2,4]triazolo[1,5-a]pyridin-2-yl]-cyclopropylmethyl ester], the IC50 is reported as under 500 nM.
`CCCNC(=O)OCC1(c2nc3c(OC)ccc(-c4cccc5c4CCC5=O)n3n2)CC1` [Compound 233, Propyl-carbamic acid 1-[8-methoxy-5-(1-oxo-indan-4-yl)-[1,2,4]triazolo[1,5-a]pyridin-2-yl]-cyclopropylmethyl ester] showed an IC50 of under 500 nM.
`COc1cc(-c2ccc(OC)c3nc(C4(COC(=O)N5CCCC5)CC4)nn23)ccc1C#N` [Compound 234, Pyrrolidine-1-carboxylic acid 1-[5-(4-cyano-3-methoxy-phenyl)-8-methoxy-[1,2,4]-triazolo[1,5-a]pyridin-2-yl]-cyclopropylmethyl ester] was tested, and the IC50 was under 500 nM.
Work on `COc1cc(-c2ccc(OC)c3nc(C4(COC(=O)NC(C)C)CC4)nn23)ccc1C#N` [Compound 235, Isopropyl-carbamic acid 1-[5-(4-cyano-3-methoxy-phenyl)-8-methoxy-[1,2,4]triazolo[1,5-a]pyridin-2-yl]-cyclopropylmethyl ester] yielded an IC50 of under 500 nM.
For `CCCNC(=O)OCC1(c2nc3c(OC)ccc(-c4cncc(C#N)c4)n3n2)CC1` [Compound 236, Propyl-carbamic acid 1-[5-(5-cyano-pyridin-3-yl)-8-methoxy-[1,2,4]triazolo[1,5-a]pyridin-2-yl]-cyclopropylmethyl ester], the IC50 was under 500 nM.
`CCCNC(=O)OCC1(c2nc3c(OC)ccc(-c4ccc(C#N)c(OC)c4)n3n2)CC1` [Compound 237, Propyl-carbamic acid 1-[5-(4-cyano-3-methoxy-phenyl)-8-methoxy-[1,2,4]triazolo[1,5-a]pyridin-2-yl]-cyclopropylmethyl ester] showed an IC50 of under 500 nM.
With `COc1ccc(-c2ccc3c(c2)CCC3=O)n2nc(C3(COC(=O)N4CCCC4)CC3)nc12` [Compound 238, Pyrrolidine-1-carboxylic acid 1-[8-methoxy-5-(1-oxo-indan-5-yl)-[1,2,4]triazolo[1,5-a]pyridin-2-yl]-cyclopropylmethyl ester] the IC50 was under 500 nM.
`COc1ccc(-c2ccc3c(c2)CCC3=O)n2nc(C3(COC(=O)NC(C)C)CC3)nc12` [Compound 239, Isopropyl-carbamic acid 1-[8-methoxy-5-(1-oxo-indan-5-yl)-[1,2,4]triazolo[1,5-a]pyridin-2-yl]-cyclopropylmethyl ester] showed an IC50 of under 500 nM.
`COc1ccc(-c2cccc3c2CCC3=O)n2nc(C3(COC(=O)NC4CCCCC4)CC3)nc12` [Compound 240, Cyclohexyl-carbamic acid 1-[8-methoxy-5-(1-oxo-indan-4-yl)-[1,2,4]triazolo[1,5-a]pyridin-2-yl]-cyclopropylmethyl ester] was tested, and the IC50 was under 500 nM.
For `COc1cc(-c2ccc(OC)c3nc(C4(COC(=O)NC5CCCCC5)CC4)nn23)ccc1C#N` [Compound 241, Cyclohexyl-carbamic acid 1-[5-(4-cyano-3-methoxy-phenyl)-8-methoxy-[1,2,4]triazolo[1,5-a]pyridin-2-yl]-cyclopropylmethyl ester], the IC50 was under 500 nM.
`COc1ccc(-c2cncc(C#N)c2)n2nc(C3(COC(=O)N4CCCC4)CC3)nc12` [Compound 242, Pyrrolidine-1-carboxylic acid 1-[5-(5-cyano-pyridin-3-yl)-8-methoxy-[1,2,4]triazolo[1,5-a]pyridin-2-yl]-cyclopropylmethyl ester] gave an IC50 of under 500 nM.
With `COc1ccc(-c2ccc3c(c2)COC3=O)n2nc(C3(C(=O)NCCS(C)(=O)=O)CC3)nc12` [Compound 269, 1-[8-Methoxy-5-(1-oxo-1,3-dihydro-isobenzofuran-5-yl)-[1,2,4]triazolo[1,5-a]pyridin-2-yl]-cyclopropanecarboxylic acid (2-methanesulfonyl-ethyl)-amide] the IC50 was under 500 nM.
Work on `COc1ccc(-c2ccc3c(c2)COC3=O)n2nc(C3(C(=O)NCC4CCCCC4)CC3)nc12` [Compound 270, 1-[8-Methoxy-5-(1-oxo-1,3-dihydro-isobenzofuran-5-yl)-[1,2,4]triazolo[1,5-a]pyridin-2-yl]-cyclopropanecarboxylic acid cyclohexylmethyl-amide] yielded an IC50 of under 500 nM.
